In series [1] the target is T1, Hepatocyte growth factor receptor (Homo sapiens, UniProt P08581). The series can be described thus: Inhibition of human GST-tagged c-MET preincubated for 20 mins followed by [33P]-ATP addition measured after 2 hrs by Hot-SpotSM kinase assay.
The subject of a further series is HFL1. The series can be described thus: Cytotoxicity against human HFL1 cells assessed as decrease in cell viability at 50 uM after 72 hrs by Cell Titer-Glo assay. It is filed as cell-based. Conditions: hfl1, 72 h.
Series [2] addresses Vascular endothelial growth factor receptor 2 (Homo sapiens) (UniProt P35968). Briefly: Inhibition of human GST-tagged VEGFR2 at 3 uM preincubated for 20 mins followed by [33P]-ATP addition measured after 2 hrs by Hot-SpotSM kinase assay.
Series [3] deals with Hepatocyte growth factor receptor (Homo sapiens), P08581 [Y1230H]. Briefly: Inhibition of human GST-tagged c-MET Y1230H mutant at 3 uM preincubated for 20 mins followed by [33P]-ATP addition measured after 2 hrs by Hot-SpotSM kinase assay.
Sequence of Hepatocyte growth factor receptor (Homo sapiens), P08581 [Y1230H] (P08581 whole entry Y1230H): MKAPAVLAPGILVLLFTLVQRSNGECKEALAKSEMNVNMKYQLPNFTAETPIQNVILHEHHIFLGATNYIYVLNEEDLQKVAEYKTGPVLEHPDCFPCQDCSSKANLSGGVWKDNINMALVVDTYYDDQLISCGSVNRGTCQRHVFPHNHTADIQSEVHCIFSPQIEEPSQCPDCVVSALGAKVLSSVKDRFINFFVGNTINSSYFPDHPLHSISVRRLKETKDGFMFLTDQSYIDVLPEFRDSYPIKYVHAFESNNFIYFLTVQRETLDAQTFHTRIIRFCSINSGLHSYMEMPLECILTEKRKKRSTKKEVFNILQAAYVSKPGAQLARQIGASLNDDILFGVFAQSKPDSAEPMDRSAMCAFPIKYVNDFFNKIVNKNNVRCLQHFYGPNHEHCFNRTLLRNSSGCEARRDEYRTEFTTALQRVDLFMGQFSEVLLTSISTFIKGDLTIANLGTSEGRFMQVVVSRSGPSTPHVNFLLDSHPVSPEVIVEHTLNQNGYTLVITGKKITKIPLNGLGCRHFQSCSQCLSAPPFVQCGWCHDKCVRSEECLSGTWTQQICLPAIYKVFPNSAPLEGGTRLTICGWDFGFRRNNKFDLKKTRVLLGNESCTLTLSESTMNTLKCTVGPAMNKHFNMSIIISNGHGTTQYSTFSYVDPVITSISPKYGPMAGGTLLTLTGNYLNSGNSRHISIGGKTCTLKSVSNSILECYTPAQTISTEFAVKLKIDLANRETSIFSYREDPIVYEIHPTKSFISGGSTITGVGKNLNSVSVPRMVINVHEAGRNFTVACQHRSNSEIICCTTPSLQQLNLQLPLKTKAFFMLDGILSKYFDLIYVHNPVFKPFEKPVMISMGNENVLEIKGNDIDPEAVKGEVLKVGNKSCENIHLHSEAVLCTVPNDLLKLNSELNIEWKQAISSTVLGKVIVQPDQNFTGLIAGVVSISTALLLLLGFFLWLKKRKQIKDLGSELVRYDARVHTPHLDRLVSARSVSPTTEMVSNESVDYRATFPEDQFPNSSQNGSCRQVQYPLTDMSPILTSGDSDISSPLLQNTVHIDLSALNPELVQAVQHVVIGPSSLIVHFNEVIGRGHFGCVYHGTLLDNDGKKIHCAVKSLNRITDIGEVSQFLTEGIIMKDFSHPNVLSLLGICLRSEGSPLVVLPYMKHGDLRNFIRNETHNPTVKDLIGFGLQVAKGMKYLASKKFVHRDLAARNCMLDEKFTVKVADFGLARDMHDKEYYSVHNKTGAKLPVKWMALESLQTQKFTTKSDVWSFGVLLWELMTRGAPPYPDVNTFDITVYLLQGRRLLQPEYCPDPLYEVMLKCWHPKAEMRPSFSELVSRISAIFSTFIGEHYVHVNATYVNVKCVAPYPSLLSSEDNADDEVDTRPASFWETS
Series [4] has as its target T1, Hepatocyte growth factor receptor. Briefly: Inhibition of human GST-tagged c-MET at 3 uM preincubated for 20 mins followed by [33P]-ATP addition measured after 2 hrs by Hot-SpotSM kinase assay.
Series [5] concerns the target ALK tyrosine kinase receptor (Homo sapiens) (UniProt Q9UM73). The series can be described thus: Inhibition of human GST-tagged ALK at 3 uM preincubated for 20 mins followed by [33P]-ATP addition measured after 2 hrs by Hot-SpotSM kinase assay.
The target in series [6] is Proto-oncogene tyrosine-protein kinase receptor Ret (Homo sapiens) (UniProt P07949). Briefly: Inhibition of human GST-tagged RET at 3 uM preincubated for 20 mins followed by [33P]-ATP addition measured after 2 hrs by Hot-SpotSM kinase assay.
Series [7] concerns the target T2, Receptor-type tyrosine-protein kinase FLT3 (Homo sapiens, UniProt P36888).
T2 sequence (P36888 whole entry): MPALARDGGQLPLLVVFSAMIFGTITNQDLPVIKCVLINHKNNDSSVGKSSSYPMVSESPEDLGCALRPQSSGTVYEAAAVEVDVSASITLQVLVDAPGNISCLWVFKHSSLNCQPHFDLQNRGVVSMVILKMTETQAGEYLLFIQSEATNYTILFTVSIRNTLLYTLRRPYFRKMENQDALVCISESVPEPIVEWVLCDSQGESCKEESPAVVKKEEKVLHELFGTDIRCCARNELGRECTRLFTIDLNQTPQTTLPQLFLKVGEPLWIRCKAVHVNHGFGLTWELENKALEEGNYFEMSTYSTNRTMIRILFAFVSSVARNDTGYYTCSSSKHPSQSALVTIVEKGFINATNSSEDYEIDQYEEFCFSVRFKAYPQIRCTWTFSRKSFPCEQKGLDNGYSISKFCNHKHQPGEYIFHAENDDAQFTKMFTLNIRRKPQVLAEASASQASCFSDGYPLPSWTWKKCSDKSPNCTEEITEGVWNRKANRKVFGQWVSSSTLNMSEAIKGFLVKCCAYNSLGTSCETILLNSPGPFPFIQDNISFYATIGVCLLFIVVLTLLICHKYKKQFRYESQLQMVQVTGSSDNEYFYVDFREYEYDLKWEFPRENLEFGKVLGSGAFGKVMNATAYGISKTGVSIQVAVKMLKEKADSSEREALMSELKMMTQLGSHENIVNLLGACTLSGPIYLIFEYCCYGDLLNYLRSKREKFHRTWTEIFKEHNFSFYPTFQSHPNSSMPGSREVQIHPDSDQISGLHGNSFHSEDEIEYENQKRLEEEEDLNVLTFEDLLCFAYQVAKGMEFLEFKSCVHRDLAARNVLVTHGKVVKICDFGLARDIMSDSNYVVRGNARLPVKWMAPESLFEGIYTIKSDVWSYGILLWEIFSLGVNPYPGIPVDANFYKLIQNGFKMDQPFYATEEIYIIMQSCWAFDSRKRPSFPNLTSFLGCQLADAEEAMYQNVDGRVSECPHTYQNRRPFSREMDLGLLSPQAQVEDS
Briefly: Inhibition of human GST-tagged FLT3 preincubated for 20 mins followed by [33P]-ATP addition measured after 2 hrs by Hot-SpotSM kinase assay.

Series [8] addresses T1, Hepatocyte growth factor receptor. Briefly: Inhibition of HGF-induced c-MET phosphorylation at Tyr1234/1235 in human MKN45 cells after 1 hr by Western blot analysis. Format: cell-based.
For series [9], the target named is Receptor-type tyrosine-protein kinase FLT3 (Homo sapiens) (UniProt P36888). Briefly: Inhibition of human GST-tagged FLT3 at 3 uM preincubated for 20 mins followed by [33P]-ATP addition measured after 2 hrs by Hot-SpotSM kinase assay.
Series [10] addresses Platelet-derived growth factor receptor alpha (Homo sapiens) (UniProt P16234). Briefly: Inhibition of human GST-tagged PDGFRalpha at 3 uM preincubated for 20 mins followed by [33P]-ATP addition measured after 2 hrs by Hot-SpotSM kinase assay.
Series [11] deals with PC-3. The series can be described thus: Cytotoxicity against human PC3 cells assessed as decrease in cell viability at 25 uM after 72 hrs by Cell Titer-Glo assay relative to control. Format: functional.
A further series relates to MKN-45. Briefly: Cytotoxicity against human MKN45 cells assessed as decrease in cell viability after 72 hrs by Cell Titer-Glo assay. It is filed as functional.
The subject of series [12] is Hepatocyte growth factor receptor (Homo sapiens), P08581 [Y1230C]. The series can be described thus: Inhibition of human GST-tagged c-MET Y1230C mutant at 3 uM preincubated for 20 mins followed by [33P]-ATP addition measured after 2 hrs by Hot-SpotSM kinase assay.
Series [13] addresses Epidermal growth factor receptor (Homo sapiens) (UniProt P00533). The series can be described thus: Inhibition of human GST-tagged EGFR at 3 uM preincubated for 20 mins followed by [33P]-ATP addition measured after 2 hrs by Hot-SpotSM kinase assay.
Series [14] has as its system EBC-1. The series can be described thus: Cytotoxicity against human EBC1 cells assessed as decrease in cell viability after 72 hrs by Cell Titer-Glo assay. Format: functional.
The target in series [15] is Macrophage-stimulating protein receptor (Homo sapiens) (UniProt Q04912). The series can be described thus: Inhibition of human GST-tagged RON at 3 uM preincubated for 20 mins followed by [33P]-ATP addition measured after 2 hrs by Hot-SpotSM kinase assay.
In series [16] the test system is PC-3. The series can be described thus: Cytotoxicity against human PC3 cells assessed as decrease in cell viability after 72 hrs by Cell Titer-Glo assay. Format: functional.
Series [17] deals with EBC-1. Briefly: Cytotoxicity against human EBC1 cells assessed as decrease in cell viability at 25 uM after 72 hrs by Cell Titer-Glo assay relative to control. It is filed as functional.

Some results are limits rather than exact numbers.

T1 sequence (P08581 whole entry): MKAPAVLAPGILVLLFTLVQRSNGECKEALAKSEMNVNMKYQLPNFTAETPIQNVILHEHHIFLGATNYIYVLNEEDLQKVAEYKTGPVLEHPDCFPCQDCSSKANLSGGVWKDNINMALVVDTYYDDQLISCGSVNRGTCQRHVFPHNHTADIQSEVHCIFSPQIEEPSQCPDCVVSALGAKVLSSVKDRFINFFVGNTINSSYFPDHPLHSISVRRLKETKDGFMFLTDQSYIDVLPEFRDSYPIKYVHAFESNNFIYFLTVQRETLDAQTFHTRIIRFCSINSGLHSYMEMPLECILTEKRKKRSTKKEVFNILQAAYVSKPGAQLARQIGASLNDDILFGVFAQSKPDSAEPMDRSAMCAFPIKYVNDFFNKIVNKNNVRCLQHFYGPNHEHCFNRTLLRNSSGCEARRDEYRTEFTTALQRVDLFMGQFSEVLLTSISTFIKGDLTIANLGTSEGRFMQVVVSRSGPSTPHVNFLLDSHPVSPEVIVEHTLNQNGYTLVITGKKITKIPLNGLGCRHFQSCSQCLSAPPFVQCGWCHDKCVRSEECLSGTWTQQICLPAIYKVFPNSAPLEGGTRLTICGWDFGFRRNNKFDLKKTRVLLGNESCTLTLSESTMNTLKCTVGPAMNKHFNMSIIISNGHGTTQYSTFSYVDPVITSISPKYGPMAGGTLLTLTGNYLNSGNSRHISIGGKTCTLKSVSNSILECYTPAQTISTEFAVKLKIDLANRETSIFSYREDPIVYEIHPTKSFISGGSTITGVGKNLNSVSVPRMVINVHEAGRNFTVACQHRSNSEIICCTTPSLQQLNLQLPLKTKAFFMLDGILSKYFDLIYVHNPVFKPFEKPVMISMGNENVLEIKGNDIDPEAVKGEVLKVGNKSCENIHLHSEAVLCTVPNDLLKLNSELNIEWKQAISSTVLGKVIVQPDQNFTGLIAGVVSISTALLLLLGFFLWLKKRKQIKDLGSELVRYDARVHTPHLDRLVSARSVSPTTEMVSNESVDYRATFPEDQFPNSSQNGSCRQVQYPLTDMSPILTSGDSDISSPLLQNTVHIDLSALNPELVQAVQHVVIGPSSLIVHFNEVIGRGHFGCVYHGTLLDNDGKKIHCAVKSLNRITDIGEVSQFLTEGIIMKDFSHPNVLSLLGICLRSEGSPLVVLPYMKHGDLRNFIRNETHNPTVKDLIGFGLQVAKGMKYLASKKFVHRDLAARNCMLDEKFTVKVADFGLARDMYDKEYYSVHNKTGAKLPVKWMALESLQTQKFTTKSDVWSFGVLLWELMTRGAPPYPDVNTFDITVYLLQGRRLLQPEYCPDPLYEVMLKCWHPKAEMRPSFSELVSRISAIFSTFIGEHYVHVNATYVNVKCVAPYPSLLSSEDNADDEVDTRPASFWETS
Sequence of Hepatocyte growth factor receptor (Homo sapiens), P08581 [Y1230C] (P08581 whole entry Y1230C): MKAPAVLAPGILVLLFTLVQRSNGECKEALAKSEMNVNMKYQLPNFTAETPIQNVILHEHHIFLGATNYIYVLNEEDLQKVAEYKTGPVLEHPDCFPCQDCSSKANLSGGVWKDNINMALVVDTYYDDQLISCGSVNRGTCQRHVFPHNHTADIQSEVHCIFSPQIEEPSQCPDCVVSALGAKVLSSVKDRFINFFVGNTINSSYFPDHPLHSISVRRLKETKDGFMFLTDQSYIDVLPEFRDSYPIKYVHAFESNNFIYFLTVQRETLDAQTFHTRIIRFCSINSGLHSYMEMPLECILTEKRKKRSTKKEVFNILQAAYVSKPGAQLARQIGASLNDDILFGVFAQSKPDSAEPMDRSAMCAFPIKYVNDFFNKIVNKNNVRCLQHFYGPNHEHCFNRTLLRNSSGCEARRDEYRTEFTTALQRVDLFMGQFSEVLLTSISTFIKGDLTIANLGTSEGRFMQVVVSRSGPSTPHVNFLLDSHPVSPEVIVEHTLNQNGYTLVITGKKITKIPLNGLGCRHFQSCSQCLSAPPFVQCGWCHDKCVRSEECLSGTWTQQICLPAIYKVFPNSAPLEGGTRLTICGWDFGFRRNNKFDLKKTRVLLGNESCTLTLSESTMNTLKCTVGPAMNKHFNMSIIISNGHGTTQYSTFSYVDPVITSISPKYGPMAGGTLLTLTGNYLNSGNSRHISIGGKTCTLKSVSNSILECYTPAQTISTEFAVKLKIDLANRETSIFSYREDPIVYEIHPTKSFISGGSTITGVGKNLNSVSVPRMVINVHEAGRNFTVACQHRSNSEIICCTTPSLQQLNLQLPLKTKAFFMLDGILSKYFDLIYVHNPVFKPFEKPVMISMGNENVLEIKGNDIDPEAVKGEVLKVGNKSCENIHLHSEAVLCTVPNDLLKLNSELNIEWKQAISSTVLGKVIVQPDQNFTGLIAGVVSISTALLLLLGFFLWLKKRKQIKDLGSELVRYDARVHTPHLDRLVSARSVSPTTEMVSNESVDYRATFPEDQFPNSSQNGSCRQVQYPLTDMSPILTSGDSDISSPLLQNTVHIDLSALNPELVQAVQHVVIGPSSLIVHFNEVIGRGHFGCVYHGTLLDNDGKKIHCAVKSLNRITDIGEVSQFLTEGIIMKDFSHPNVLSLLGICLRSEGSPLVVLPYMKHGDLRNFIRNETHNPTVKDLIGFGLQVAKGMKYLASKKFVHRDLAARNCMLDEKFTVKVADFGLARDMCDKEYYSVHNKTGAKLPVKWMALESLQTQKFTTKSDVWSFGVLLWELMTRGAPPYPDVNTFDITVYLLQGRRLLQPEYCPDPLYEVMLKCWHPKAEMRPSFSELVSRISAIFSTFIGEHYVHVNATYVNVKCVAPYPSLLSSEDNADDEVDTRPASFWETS

With `CC(=O)N1CCC(Nc2ccc(-c3n[nH]c4c3CN(S(=O)(=O)c3cccc5ccccc35)CC4)cc2)CC1`, in series [1], the IC50 is greater than 50 µM.

`CN1CCC(Nc2ccc(-c3n[nH]c4c3CN(S(=O)(=O)c3c(Cl)cccc3Cl)CC4)cc2)CC1`: the Activity came to 40.6% with HFL1, 60.89% in the series on PC-3 [11], 1.187 µM in the series with MKN-45 and 3.481 µM with EBC-1 [14]. Also, the inhibition was 26.9% in series [2]; 7.16% in series [3]; 17.6% in [4]; 55.6% in series [5]; 33.5% in [6]; “Dose-dependent effect” in series [8]. The inhibition is 97.8% in series [9]; 41.1% in series [10]; 14.9% in series [12]; -5.68% in series [13]; 27.4% in [15]. Further, the results for the IC50 in series [1] and in series [7] were 0.068 µM and 124 nM, respectively.

Turning to `O=C(NCCO)c1ccc(-c2n[nH]c3c2CN(S(=O)(=O)c2c(Cl)cccc2Cl)CC3)cc1`, the Activity in the series with PC-3 [16], with MKN-45 and with EBC-1 [14] was greater than 25 µM throughout.

As to `CC(=O)N1CCC(Nc2ccc(-c3n[nH]c4c3CN(S(=O)(=O)c3cccs3)CC4)cc2)CC1`, the figures for the Activity in the series on PC-3 [16], with EBC-1 [17] and in the series with MKN-45 were greater than 25 µM, 57.52% and greater than 25 µM, respectively.

Regarding `CC(=O)N1CCC(Nc2ccc(-c3n[nH]c4c3CN(S(=O)(=O)c3c(Cl)cccc3Cl)CC4)cc2)CC1`, the Activity with PC-3 [16] was greater than 25 µM; in the series with MKN-45, 12.02 µM; in the series with EBC-1 [14], 11.478 µM.

Regarding `C[C@@H](Oc1cc(-c2cnn(C3CCNCC3)c2)cnc1N)c1c(Cl)ccc(F)c1Cl` [CRIZOTINIB], the Activity is 2.244 µM in the series with PC-3 [16], 39.4% with HFL1, 0.022 µM in the series with MKN-45 and 0.013 µM in the series with EBC-1 [14].

Take `CN1CCN(C(=O)c2ccc(-c3n[nH]c4c3CN(S(=O)(=O)c3c(Cl)cccc3Cl)CC4)cc2)CC1`: the Activity in the series with MKN-45 was 12.057 µM; in the series with EBC-1 [14], 8.278 µM.

`CC(=O)N1CCC(Nc2ccc(-c3n[nH]c4c3CN(S(=O)(=O)c3ccc(C)cc3)CC4)cc2)CC1` displayed an IC50 in series [1] greater than 50 µM.

In turn, `CC(=O)N1CCC(Nc2ccc(-c3n[nH]c4c3CN(S(=O)(=O)c3cccc5cccnc35)CC4)cc2)CC1` yielded an IC50 in series [1] greater than 50 µM.

The record behind these values is ChEMBL document CHEMBL4130362, “Structure-based design, synthesis, and evaluation of 4,5,6,7-tetrahydro-1H-pyrazolo[4,3-c]pyridine derivatives as novel c-Met inhibitors” (Eur J Med Chem, 2017).
